Laboratory results from patent US12077503B2, “Substituted cyclic amides and their use as herbicides” (FMC CORPORATION, priority 2015, dated 2024).

How the values were obtained:
Assay type in all cases: in vivo
[1] = tested on: barnyardgrass (Echinochloa crus-galli); assay: Test A preemergence; details: Echinochloa crus-galli, pre-emergence, 240 h, preemergence, 0 to 100 scale where 0 is no effect and 100 is complete control, read-out: Barnyardgrass plant response rating
Method in brief: (§1)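 Visual injury, scored on a 0–100 scale relative to untreated controls, was recorded about 10 d after application. Treatments were a preemergence soil spray over planted seeds or a postemergence spray on plants at the one- to two-leaf stage, 2 to 10 cm tall, all in loam soil–sand blend in the greenhouse.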

[2] = tested on: giant foxtail (Setaria faberii); assay: Test A preemergence; details: Setaria faberi, pre-emergence, 240 h, preemergence, 0 to 100 scale where 0 is no effect and 100 is complete control, read-out: Foxtail, Giant plant response rating
Method in brief: as §1

[3] = tested on: pigweed (Amaranthus retroflexus); assay: Test A preemergence; details: Amaranthus retroflexus, pre-emergence, 240 h, preemergence, 0 to 100 scale where 0 is no effect and 100 is complete control, read-out: Pigweed plant response rating
[4] = tested on: ryegrass, Italian (Italian ryegrass, Lolium multiflorum); assay: Test A preemergence; details: Lolium multiflorum, pre-emergence, 240 h, preemergence, 0 to 100 scale where 0 is no effect and 100 is complete control, read-out: Ryegrass, Italian plant response rating
Method in brief: as §1

Kochia (Kochia scoparia) [5] = assay: Test A preemergence; details: Bassia scoparia, pre-emergence, 240 h, preemergence, 0 to 100 scale where 0 is no effect and 100 is complete control, read-out: Kochia plant response rating
Method in brief: as §1

[6] = tested on: ragweed (common ragweed, Ambrosia elatior); assay: Test A preemergence; details: Ambrosia artemisiifolia, pre-emergence, 240 h, preemergence, 0 to 100 scale where 0 is no effect and 100 is complete control, read-out: Ragweed plant response rating
Method in brief: as §1

[7] = tested on: barnyardgrass (Echinochloa crus-galli); assay: Test A postemergence; details: Echinochloa crus-galli, post-emergence, 240 h, postemergence
Method in brief: as §1

[8] = tested on: wheat (Triticum aestivum); assay: Test A postemergence; details: Triticum aestivum, post-emergence, 240 h, postemergence
Method in brief: as §1

[9] = tested on: giant foxtail (Setaria faberii); assay: Test A postemergence; details: Setaria faberi, post-emergence, 240 h, postemergence
Method in brief: as §1

[10] = tested on: pigweed (Amaranthus retroflexus); assay: Test A postemergence; details: Amaranthus retroflexus, post-emergence, 240 h, postemergence
Method in brief: as §1

[11] = tested on: ryegrass, Italian (Italian ryegrass, Lolium multiflorum); assay: Test A postemergence; details: Lolium multiflorum, post-emergence, 240 h, postemergence
Method in brief: as §1

[12] = tested on: Galium (catchweed bedstraw, Galium aparine); assay: Test A postemergence; details: Galium, post-emergence, 240 h, postemergence
Method in brief: as §1

Kochia (Kochia scoparia) [13] = assay: Test A postemergence; details: Bassia scoparia, post-emergence, 240 h, postemergence
Method in brief: as §1

[14] = tested on: ragweed (common ragweed, Ambrosia elatior); assay: Test A postemergence; details: Ambrosia artemisiifolia, post-emergence, 240 h, postemergence
Method in brief: as §1

corn (Zea mays) = assay: Test A postemergence; details: Zea mays, post-emergence, 240 h, postemergence
Method in brief: as §1

[15] = 125 g ai/ha, visual injury rating, approximately 10 d

CSc1ccccc1NC(=O)[C@H]1C(=O)N(C)C[C@@H]1c1ccc(C(F)(F)F)nc1 [Compound 1198]
90%: pest or weed control at 500 g/ha ([7]; 500 g ai/ha, 0 to 100 scale, 0 is no effect, 100 is complete control, read-out: Barnyardgrass plant response rating) | pest or weed control at 500 g/ha ([9]; 500 g ai/ha, 0 to 100 scale, 0 is no effect, 100 is complete control, read-out: Foxtail, Giant plant response rating)
50%: pest or weed control at 500 g/ha ([12]; 500 g ai/ha, 0 to 100 scale, 0 is no effect, 100 is complete control, read-out: Galium plant response rating)
60%: pest or weed control at 500 g/ha ([4]; 500 g ai/ha) | plant injury at 500 g/ha ([8]; 500 g ai/ha, 0 to 100 scale, 0 is no effect, 100 is complete control, read-out: Wheat plant response rating) | pest or weed control at 125 g/ha (Kochia (Kochia scoparia) [13]; 125 g ai/ha, visual injury vs untreated controls after approx. 10 d, 0 = no effect, 100 = complete control, read-out: Kochia plant response rating (0 to 100 scale)) | pest or weed control at 500 g/ha (Kochia (Kochia scoparia) [13]; 500 g ai/ha, 0 to 100 scale, 0 is no effect, 100 is complete control, read-out: Kochia plant response rating)
70%: pest or weed control at 125 g/ha [1, 15] | pest or weed control at 125 g/ha [3, 15] | pest or weed control at 125 g/ha [6, 15] | pest or weed control at 500 g/ha ([10]; 500 g ai/ha, 0 to 100 scale, 0 is no effect, 100 is complete control, read-out: Pigweed plant response rating)
0%: plant injury at 125 g/ha ([8]; 125 g ai/ha, visual injury vs untreated controls after approx. 10 d, 0 = no effect, 100 = complete control, read-out: Wheat plant response rating (0 to 100 scale)) | pest or weed control at 125 g/ha ([11]; 125 g ai/ha, visual injury vs untreated controls after approx. 10 d, 0 = no effect, 100 = complete control, read-out: Ryegrass, Italian plant response rating (0 to 100 scale)) | pest or weed control at 125 g/ha ([14]; 125 g ai/ha, visual injury vs untreated controls after approx. 10 d, 0 = no effect, 100 = complete control, read-out: Ragweed plant response rating (0 to 100 scale)) | plant injury at 125 g/ha (corn (Zea mays); 125 g ai/ha, visual injury vs untreated controls after approx. 10 d, 0 = no effect, 100 = complete control, read-out: Corn plant response rating (0 to 100 scale))
40%: pest or weed control at 125 g/ha ([10]; 125 g ai/ha, visual injury vs untreated controls after approx. 10 d, 0 = no effect, 100 = complete control, read-out: Pigweed plant response rating (0 to 100 scale)) | pest or weed control at 125 g/ha ([12]; 125 g ai/ha, visual injury vs untreated controls after approx. 10 d, 0 = no effect, 100 = complete control, read-out: Galium plant response rating (0 to 100 scale))
30%: pest or weed control at 125 g/ha [4, 15] | pest or weed control at 500 g/ha ([11]; 500 g ai/ha, 0 to 100 scale, 0 is no effect, 100 is complete control, read-out: Ryegrass, Italian plant response rating) | pest or weed control at 500 g/ha ([14]; 500 g ai/ha, 0 to 100 scale, 0 is no effect, 100 is complete control, read-out: Ragweed plant response rating)
80%: pest or weed control at 125 g/ha (Kochia (Kochia scoparia) [5]; [15]) | pest or weed control at 500 g/ha (Kochia (Kochia scoparia) [5]; 500 g ai/ha) | pest or weed control at 125 g/ha ([7]; 125 g ai/ha, visual injury vs untreated controls after approx. 10 d, 0 = no effect, 100 = complete control, read-out: Barnyardgrass plant response rating (0 to 100 scale)) | pest or weed control at 125 g/ha ([9]; 125 g ai/ha, visual injury vs untreated controls after approx. 10 d, 0 = no effect, 100 = complete control, read-out: Foxtail, Giant plant response rating (0 to 100 scale))
20%: plant injury at 500 g/ha (corn (Zea mays); 500 g ai/ha, 0 to 100 scale, 0 is no effect, 100 is complete control, read-out: Corn plant response rating)
100%: pest or weed control at 500 g/ha ([1]; 500 g ai/ha) | pest or weed control at 125 g/ha [2, 15] | pest or weed control at 500 g/ha ([2]; 500 g ai/ha) | pest or weed control at 500 g/ha ([3]; 500 g ai/ha) | pest or weed control at 500 g/ha ([6]; 500 g ai/ha)
